# Values of other authors in patent US9427470B2, “Hyaluronic acid stabilizer” (priority 2012, dated 2016).
# Molecular target: CD44 (Homo sapiens, UniProt P16070)
# Conditions: Aruffo, et al., 1990
# CD44, sequence (P16070 21-742, species assumed): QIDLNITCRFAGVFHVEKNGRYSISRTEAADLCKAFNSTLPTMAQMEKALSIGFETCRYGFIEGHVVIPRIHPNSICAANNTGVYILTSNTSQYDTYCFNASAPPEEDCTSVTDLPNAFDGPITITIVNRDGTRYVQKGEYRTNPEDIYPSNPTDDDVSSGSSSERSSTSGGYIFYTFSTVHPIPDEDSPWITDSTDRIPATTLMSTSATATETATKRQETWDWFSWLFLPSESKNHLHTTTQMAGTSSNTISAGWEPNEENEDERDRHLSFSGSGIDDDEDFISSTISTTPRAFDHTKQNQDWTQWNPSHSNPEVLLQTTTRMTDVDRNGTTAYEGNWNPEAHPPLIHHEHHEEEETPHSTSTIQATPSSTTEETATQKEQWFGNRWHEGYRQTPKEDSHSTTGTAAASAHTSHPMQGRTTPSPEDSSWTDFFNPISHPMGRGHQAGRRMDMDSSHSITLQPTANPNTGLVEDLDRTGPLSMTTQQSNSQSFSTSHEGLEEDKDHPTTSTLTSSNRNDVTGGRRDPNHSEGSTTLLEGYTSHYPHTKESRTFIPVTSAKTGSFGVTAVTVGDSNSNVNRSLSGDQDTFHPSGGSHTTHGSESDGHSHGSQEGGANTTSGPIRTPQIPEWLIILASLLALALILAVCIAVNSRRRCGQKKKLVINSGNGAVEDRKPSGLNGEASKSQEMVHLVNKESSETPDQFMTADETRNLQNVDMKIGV
substance,measurement,value
Hyaluronic acid [HA],strength of bond to CD44 relative to chondroitin sulfate,about 100 times
